Test results published in ChEMBL document CHEMBL4725462, “Biotransformation: Impact and Application of Metabolism in Drug Discovery” (ACS Med Chem Lett, 2020).
Activity calls are given as the source filed them. The calls are words filed in the database; no cut-off is given here.

Columns and labels:
HMC-1.2 = assay: Induction of apoptosis in human HMC-1.2 cells by flow cytometry; assay type: functional, cell-based
[1] = Inhibition of IgE-dependent histamine release in normal human blood basophils; assay type: functional, tissue-based; conditions: Basophil
cells = assay type: functional, tissue-based; conditions: Homo sapiens, Mast cell
Description: Growth inhibition of human neoplastic mast cells incubated for 24 to 48 hrs

IC50 (cells)	SMILES	Activity (HMC-1.2)	IC50 [1]
	CO[C@@H]1[C@H](N(C)C(=O)c2ccccc2)C[C@H]2O[C@]1(C)n1c3ccccc3c3c4c(c5c6ccccc6n2c5c31)C(=O)NC4O (stereo partly specified)	inactive	10 nM
	CO[C@@H]1[C@H](N(C)C(=O)c2ccccc2)C[C@H]2O[C@]1(C)n1c3ccccc3c3c4c(c5c6ccccc6n2c5c31)C(=O)NC4	Active	
50 nM	CN(C(=O)c1ccccc1)[C@@H]1C[C@H]2O[C@@](C)([C@@H]1O)n1c3ccccc3c3c4c(c5c6ccccc6n2c5c31)C(=O)NC4	Active	10 nM
